Results: patent US11827628B2, “Compositions and methods for inhibition of the JAK pathway” (Rigel Pharmaceuticals, Inc., priority 2005, dated 2023)
Structures can show the parent of a compound that is named as a salt. Where two headings read alike, the source gives them in different places.

Tested on: IL-4 stimulated expression of CD23 in human Ramos B cells (JAK-1 and JAK-3)
Assay: Assay for Ramos B-Cell Line Stimulated with IL-4 (CD23 upregulation, FACS)
Assay type: cell-based
Conditions: read-out: IC50, Example 41
Description: One means of assaying for such inhibition is detection of the effect of the 2,4-substituted pyrimidinediamine compounds on the upregulation of downstream gene products. In the Ramos/IL4 assay, B-cells are stimulated with the cytokine Interleukin-4 (IL-4) leading to the activation of the JAK/Stat pathway through phosphorylation of the JAK family kinases, JAK1 and JAK3, which in turn phosphorylate and activate the transcription factor Stat-6. […] To study the effect of inhibitors (e.g., the 2,4-substituted pyrimindinediamine compounds described herein) on the JAK1 and JAK3 kinases, human Ramos B cells are stimulated with human IL-4. Twenty to 24 hours post stimulation, cells are stained for upregulation of CD23 and analyzed using flow cytometry (FACS). […] An exemplary assay of this type is described in greater detail in Example 41
B-cells stimulated with cytokine Interleukin-4 (IL-4) activate the JAK/Stat pathway through phosphorylation of the JAK family kinases, JAK-1 and JAK-3, which in turn phosphorylate and activate the transcription factor Stat-6. […] To study the effect of inhibitors on the JAK family kinases, human Ramos B cells are stimulated with human IL-4.
The Ramos B-cell line was acquired from ATCC (ATCC Catalog No. CRL-1596). The cells were cultured in RPMI 1640 (Cellgro, MediaTech, Inc., Herndon, VA, Cat No. 10-040-CM) with 10% fetal bovine serum (FBS), heat inactivated (JRH Biosciences, Inc, Lenexa, Kansas, Cat No. 12106-500M) according to ATCC propagation protocol. Cells were maintained at a density of 3.5×10^5. The day before the experiment, Ramos B-cells were diluted to 3.5×10^5 cells/mL to ensure that they were in a logarithmic growth phase.
Cells were spun down and suspended in RPMI with 5% serum. 5×10^4 cells were used per point in a 96-well tissue culture plate. Cells were pre-incubated with compound or DMSO (Sigma-Aldrich, St. Louis, MO, Cat No. D2650) vehicle control for 1 hour in a 37° C. incubator. Cells were then stimulated with IL-4 (Peprotech Inc., Rocky Hill, NJ, Cat No. 200-04) for a final concentration of 50 units/mL for 20-24 hours. Cells were then spun down and stained with anti-CD23-PE(BD Pharmingen, San Diego, CA, Cat No. 555711) and analyzed by FACS. Detection was performed using a BD LSR I System Flow Cytometer, purchased from Becton Dickinson Biosciences of San Jose, California The IC50 calculated based on the results of this assay are provided in TABLE XII.

[1] = Ramos B cells stimulated with IL-4, CD23 expression by FACS
[2] = Ramos B-cell line stimulated with IL-4, CD23 expression by FACS
[3] = Homo sapiens, Ramos, Ramos B-cell line stimulated with IL-4, CD23 expression by FACS
[4] = Homo sapiens, Ramos, Ramos B cells stimulated with IL-4, CD23 expression by FACS

Cc1ccc(Nc2ncc(F)c(Nc3cccc(CNC(N)=O)c3)n2)cc1S(N)(=O)=O [III-115, N4-(3-aminocarbonylaminomethyl)phenyl-N2-(3-aminosulfonyl-4-methyl)phenyl-5-fluoro-2,4-pyrimidinediamine]
IC50 [1]: 1650 nM

N#CCc1ccc(Nc2nc(Nc3ccc(S(N)(=O)=O)cc3)ncc2F)cc1 [III-3, N2-(4-Aminosulfonyl)phenyl-N4-(4-cyanomethyl)phenyl-5-fluoro-2,4-pyrimidinediamine]
IC50 [2]: 536 nM

C=CC(=O)NCc1ccc(Nc2nc(Nc3ccc(S(N)(=O)=O)cc3)ncc2F)cc1 [III-44, N4-(4-Acrylamidomethylphenyl)-N2-(4-aminosulfonylphenyl)-5-fluoro-2,4-pyrimidinediamine]
IC50 [3]: 1430 nM

NC(=O)COc1cccc(Nc2nc(Nc3ccc(S(N)(=O)=O)cc3)ncc2F)c1 [Compound I-91, N4-(3-Aminocarbonylmethoxy)phenyl-N2-(4-aminosulfonyl)phenyl-5-fluoro-2,4-pyrimidinediamine]
IC50 [2]: 2030 nM

NS(=O)(=O)c1ccc(Nc2ncc(F)c(Nc3ccc(OCC(=O)N4CCOCC4)cc3)n2)cc1 [Compound I-210, N2-(4-Aminosulfonylphenyl)-5-fluoro-N4-[4-(2-morpholin-4-yl-2-oxo-ethoxy)phenyl]-2,4-pyrimidinediamine]
IC50 [3]: 866 nM

CN1C(=O)C(C)(C)S(=O)(=O)c2ccc(Nc3nc(Nc4cccc(S(N)(=O)=O)c4)ncc3F)cc21 [VII-11, N2-(3-Aminosulphonylphenyl)-5-fluoro-N4-(2,2,4-trimethyl-1,1,3-trioxo-benzo[1,4]thiazin-6-yl)-2,4-pyrimidinediamine]
IC50 [4]: 602 nM

NC(=O)COc1ccc(Nc2nc(Nc3cccc(S(N)(=O)=O)c3)ncc2F)cc1CO [Compound I-107, N4-(4-Aminocarbonylmethoxy-3-hydroxymethylphenyl]-N2-(3-aminosulfonylphenyl)-5-fluoro-2,4-pyrimidinediamine]
IC50 [3]: 1510 nM

CCC(=O)NCc1ccc(Nc2nc(Nc3ccc(S(N)(=O)=O)cc3)ncc2F)cc1 [III-35, N2-(4-aminosulfonyl)phenyl-N4-(4-ethylcarbonylaminomethyl)phenyl-5-fluoro-2,4-pyrimidinediamine]
IC50 [2]: 1080 nM

Cc1ccc(Nc2ncc(F)c(Nc3ccc(C(=O)N4CCS(=O)(=O)CC4)cc3)n2)cc1S(N)(=O)=O [IX-38, N2-(3-Aminosulfonyl-4-methylphenyl)-N4-[4-(1,1-dioxo-4-thiomorpholinyl)carbonylphenyl]-5-fluoro-2,4-pyrimidinediamine]
IC50 [4]: 2310 nM

CCCN(c1ccc(OC)c(Cl)c1)c1nc(Nc2cc(C)c(F)c(S(N)(=O)=O)c2)ncc1F [VI-23, N2-(3-Aminosulfonyl-4-fluoro-5-methylphenyl)-N4-(3-chloro-4-methoxyphenyl)-5-fluoro-N4-propyl-2,4-pyrimidinediamine]
IC50 [4]: 597 nM

CCC(=O)NS(=O)(=O)c1cc(Nc2ncc(F)c(Nc3ccc(CCC#N)c(C)c3)n2)ccc1C [VI-104, N4-[4-(2-Cyanoethyl)-3-methylphenyl]-5-fluoro-N2-(4-methyl-3-propionylaminosulfonylphenyl)-2,4-pyrimidinediamine Sodium Salt]
IC50 (Ramos B cells stimulated with IL-4, CD23 expression by FACS, sodium salt): 1980 nM

Cc1ccc(Nc2ncc(F)c(Nc3ccc4nc(N(C)C)ccc4c3)n2)cc1S(N)(=O)=O [VII-75, N2-(3-Aminosulfonyl-4-methylphenyl)-N4-(2-N,N′-dimethylamine-quinolin-6-yl)-5-fluoro-2,4-pyrimidinediamine]
IC50 [1]: 544 nM

NS(=O)(=O)c1cc(Nc2ncc(F)c(Nc3ccc(Cl)c(S(N)(=O)=O)c3)n2)ccc1Cl [VI-115, N2,N4-Bis-(3-aminosulfonyl-4-chlorophenyl)-5-fluoro-2,4-pyrimidinediamine]
IC50 [4]: 890 nM

COc1cc(Nc2nc(Nc3ccc(C)c(S(N)(=O)=O)c3)ncc2F)ccc1NC(=O)CC#N [Compound I-85, N2-(3-Aminosulfonyl-4-methylphenyl)-5-fluoroN4-[3-methoxy-4-(N-cyanoacetyl)aminophneyl]-2,4-pyrimidinediamine]
IC50 [2]: 791 nM
